Reference: PMC5218480 (PLoS ONE, 2017)

Test system: MV-4-11 cells
Experiment: Gene expression microarray analysis (Affymetrix PrimeView) and GSEA
Format: cell-based, human
Parameters: RFU PODN (11730768_x_at) / Fold change /veh PODN (11730768_x_at) / RFU LINC00158 (11744669_a_at) / Fold change /veh LINC00158 (11744669_a_at) / RFU DUSP10 (11751237_a_at) / Fold change /veh DUSP10 (11751237_a_at) / RFU ID3 (11757404_x_at) / Fold change /veh ID3 (11757404_x_at) / RFU PLEKHG5 (11737974_s_at) / Fold change /veh PLEKHG5 (11737974_s_at) / RFU LRRC4B (11730491_at) / Fold change /veh LRRC4B (11730491_at) / RFU GIMAP4 (11747438_a_at) / Fold change /veh GIMAP4 (11747438_a_at) / RFU KRT8 (11758183_x_at) / Fold change /veh KRT8 (11758183_x_at) / RFU CNN1 (11734310_a_at) / Fold change /veh CNN1 (11734310_a_at) / RFU VPS37D (11726825_at) / Fold change /veh VPS37D (11726825_at) / RFU C10orf10 (11716522_x_at) / Fold change /veh C10orf10 (11716522_x_at) / RFU KIR2DL2 /// KIR2DL4 /// KIR2DL5A /// KIR2DL5B /// KIR2DS1 /// KIR2DS2 /// KIR2DS3 /// KIR2DS4 /// KIR3DL3 /// KIR3DL3 /// KIR3DS1 (11738374_at) / Fold change /veh KIR2DL2 /// KIR2DL4 /// KIR2DL5A /// KIR2DL5B /// KIR2DS1 /// KIR2DS2 /// KIR2DS3 /// KIR2DS4 /// KIR3DL3 /// KIR3DL3 /// KIR3DS1 (11738374_at) / RFU C1QL1 (11718748_at) / Fold change /veh C1QL1 (11718748_at) / RFU TMPRSS4 (11747572_a_at) / Fold change /veh TMPRSS4 (11747572_a_at) / RFU HAMP (11756126_x_at) / Fold change /veh HAMP (11756126_x_at) / RFU RNFT2 (11725882_a_at) / Fold change /veh RNFT2 (11725882_a_at) / RFU NR4A2 (11747474_a_at) / Fold change /veh NR4A2 (11747474_a_at) / RFU ABCC12 (11746883_a_at) / Fold change /veh ABCC12 (11746883_a_at) / RFU TMEM136 (11760407_x_at) / Fold change /veh TMEM136 (11760407_x_at) / RFU CLDN22 /// WWC2 (11732394_at) / Fold change /veh CLDN22 /// WWC2 (11732394_at) / RFU HLA-DPB1 (11760878_x_at) / Fold change /veh HLA-DPB1 (11760878_x_at) / RFU SPINT1 (11716480_a_at) / Fold change /veh SPINT1 (11716480_a_at) / RFU GAP43 (11754022_s_at) / Fold change /veh GAP43 (11754022_s_at) / RFU A4GNT (11735810_at) / Fold change /veh A4GNT (11735810_at) / RFU PRB3 (11715151_x_at) / Fold change /veh PRB3 (11715151_x_at) / RFU TUBB4B (11761932_at) / Fold change /veh TUBB4B (11761932_at) / RFU CAPN14 (11732068_a_at) / Fold change /veh CAPN14 (11732068_a_at) / RFU TMCC2 (11721928_a_at) / Fold change /veh TMCC2 (11721928_a_at) / RFU IRGQ (11745062_a_at) / Fold change /veh IRGQ (11745062_a_at) / RFU FAM174B (11720279_a_at) / Fold change /veh FAM174B (11720279_a_at) / RFU TMPRSS4 (11748680_a_at) / Fold change /veh TMPRSS4 (11748680_a_at) / RFU FAM212B (11763350_a_at) / Fold change /veh FAM212B (11763350_a_at) / RFU PLEKHG5 (11743358_a_at) / Fold change /veh PLEKHG5 (11743358_a_at) / RFU ZSCAN30 (11745921_a_at) / Fold change /veh ZSCAN30 (11745921_a_at) / RFU CMKLR1 (11741424_a_at) / Fold change /veh CMKLR1 (11741424_a_at) / RFU LOC101060620 /// MAPK8IP1 (11723275_at) / Fold change /veh LOC101060620 /// MAPK8IP1 (11723275_at) / RFU SPTSSB (11747773_x_at) / Fold change /veh SPTSSB (11747773_x_at) / RFU PRSS12 (11739890_at) / Fold change /veh PRSS12 (11739890_at) / RFU BIN1 (11741810_x_at) / Fold change /veh BIN1 (11741810_x_at) / RFU WNT11 (11732464_a_at) / Fold change /veh WNT11 (11732464_a_at) / RFU C10orf10 (11716521_a_at) / Fold change /veh C10orf10 (11716521_a_at) / RFU C5orf56 (11738089_at) / Fold change /veh C5orf56 (11738089_at) / RFU CYB561 (11721691_x_at) / Fold change /veh CYB561 (11721691_x_at) / RFU ANKRD19P (11752326_a_at) / Fold change /veh ANKRD19P (11752326_a_at) / RFU OR2T12 /// OR2T33 /// OR2T8 (11738714_s_at) / Fold change /veh OR2T12 /// OR2T33 /// OR2T8 (11738714_s_at) / RFU VCAN (11748164_a_at) / Fold change /veh VCAN (11748164_a_at) / RFU JSRP1 (11732532_at) / Fold change /veh JSRP1 (11732532_at) / RFU KRTAP10-11 (11738290_x_at) / Fold change /veh KRTAP10-11 (11738290_x_at) / RFU MYO3A (11730013_a_at) / Fold change /veh MYO3A (11730013_a_at) / RFU EBF3 (11725865_a_at) / Fold change /veh EBF3 (11725865_a_at) / RFU CAMK2N1 (11719241_x_at) / Fold change /veh CAMK2N1 (11719241_x_at) / RFU C5orf56 (11738088_a_at) / Fold change /veh C5orf56 (11738088_a_at) / RFU OLFML3 (11715873_a_at) / Fold change /veh OLFML3 (11715873_a_at) / RFU LOC100653217 /// NTM (11731650_a_at) / Fold change /veh LOC100653217 /// NTM (11731650_a_at) / RFU MAPK11 (11762145_a_at) / Fold change /veh MAPK11 (11762145_a_at) / RFU FIZ1 (11724087_x_at) / Fold change /veh FIZ1 (11724087_x_at) / RFU OASL (11726364_x_at) / Fold change /veh OASL (11726364_x_at) / RFU SOX15 (11748057_x_at) / Fold change /veh SOX15 (11748057_x_at) / RFU CD79A (11719716_a_at) / Fold change /veh CD79A (11719716_a_at) / RFU HIST1H1D (11736915_at) / Fold change /veh HIST1H1D (11736915_at) / RFU CASKIN2 (11723855_a_at) / Fold change /veh CASKIN2 (11723855_a_at) / RFU LOC730098 (11760151_x_at) / Fold change /veh LOC730098 (11760151_x_at) / RFU OR4N2 (11742367_at) / Fold change /veh OR4N2 (11742367_at) / RFU PRRT2 (11749266_a_at) / Fold change /veh PRRT2 (11749266_a_at) / RFU SNX32 (11753110_a_at) / Fold change /veh SNX32 (11753110_a_at) / RFU CDHR5 (11726645_a_at) / Fold change /veh CDHR5 (11726645_a_at) / RFU RCAN1 (11760418_a_at) / Fold change /veh RCAN1 (11760418_a_at) / RFU FAM167A (11723789_a_at) / Fold change /veh FAM167A (11723789_a_at) / RFU FAM26E (11764081_at) / Fold change /veh FAM26E (11764081_at) / RFU ISYNA1 (11749810_s_at) / Fold change /veh ISYNA1 (11749810_s_at) / RFU ACY1 (11761880_at) / Fold change /veh ACY1 (11761880_at) / RFU 11764098_at / Fold change /veh 11764098_at / RFU SAMD14 (11745864_x_at) / Fold change /veh SAMD14 (11745864_x_at) / RFU NPB (11741838_a_at) / Fold change /veh NPB (11741838_a_at) / RFU TMPRSS6 (11731388_a_at) / Fold change /veh TMPRSS6 (11731388_a_at) / RFU KRTAP10-2 (11738614_at) / Fold change /veh KRTAP10-2 (11738614_at) / RFU ARHGAP8 /// PRR5-ARHGAP8 (11727945_x_at) / Fold change /veh ARHGAP8 /// PRR5-ARHGAP8 (11727945_x_at) / RFU KRTAP5-7 /// NADSYN1 (11734609_at) / Fold change /veh KRTAP5-7 /// NADSYN1 (11734609_at) / RFU RASL12 (11751679_a_at) / Fold change /veh RASL12 (11751679_a_at) / RFU CDKN2B (11736163_a_at) / Fold change /veh CDKN2B (11736163_a_at) / RFU PRF1 (11729649_at) / Fold change /veh PRF1 (11729649_at) / RFU, ZNF638 /// ZNF638-IT1 / Fold change vs veh, ZNF638 /// ZNF638-IT1 / RFU, PANK3 / Fold change vs veh, PANK3 / RFU, SH3YL1 / Fold change vs veh, SH3YL1 / RFU, ZEB2 / Fold change vs veh, ZEB2 / RFU, NRIP1 / Fold change vs veh, NRIP1 / RFU, PTTG1IP / Fold change vs veh, PTTG1IP / RFU, CAPN2 / Fold change vs veh, CAPN2 / RFU, MED14 / Fold change vs veh, MED14 / RFU, SNORA58 / Fold change vs veh, SNORA58 / RFU, C1orf63 / Fold change vs veh, C1orf63 / RFU, LRRFIP1 / Fold change vs veh, LRRFIP1 / RFU, NDUFAF7 / Fold change vs veh, NDUFAF7 / RFU, SLC12A2 / Fold change vs veh, SLC12A2 / RFU, IBTK / Fold change vs veh, IBTK / RFU, ESF1 / Fold change vs veh, ESF1 / Fold change vs veh, TMEM50B / RFU, TAOK1 / Fold change vs veh, TAOK1 / RFU, ACBD3 / Fold change vs veh, ACBD3 / RFU, TMA16 / Fold change vs veh, TMA16 / RFU, RWDD3 / Fold change vs veh, RWDD3 / RFU, BCAT1 / Fold change vs veh, BCAT1 / RFU, EDEM3 / Fold change vs veh, EDEM3 / RFU, TMEM33 / Fold change vs veh, TMEM33 / RFU, WDR75 / Fold change vs veh, WDR75 / RFU, AHCTF1 / Fold change vs veh, AHCTF1 / RFU, TFRC / Fold change vs veh, TFRC / RFU, ZDHHC17 / Fold change vs veh, ZDHHC17 / RFU, NOM1 / Fold change vs veh, NOM1 / RFU, ARL8B / Fold change vs veh, ARL8B / RFU, ZBTB11 / Fold change vs veh, ZBTB11 / RFU, TAMM41 / Fold change vs veh, TAMM41 / RFU, KIAA1704 /// LOC100996395 / Fold change vs veh, KIAA1704 /// LOC100996395 / RFU, ING1 / Fold change vs veh, ING1 / RFU, TRMT61B / Fold change vs veh, TRMT61B / RFU, FUBP3 / Fold change vs veh, FUBP3 / RFU, TP53 / Fold change vs veh, TP53 / RFU, TNKS2 / Fold change vs veh, TNKS2 / RFU, ZFP14 / Fold change vs veh, ZFP14 / RFU, ACTR2 / Fold change vs veh, ACTR2 / RFU, PPP3R1 / Fold change vs veh, PPP3R1 / RFU, PIK3R1 / Fold change vs veh, PIK3R1 / RFU, HNRNPA1 / Fold change vs veh, HNRNPA1 / RFU, RNF170 / Fold change vs veh, RNF170 / RFU, ZNF28 / Fold change vs veh, ZNF28 / RFU, RNGTT / Fold change vs veh, RNGTT / RFU, OGT / Fold change vs veh, OGT / RFU, BRD1 / Fold change vs veh, BRD1 / RFU, MARS / Fold change vs veh, MARS / RFU, ZNF655 / Fold change vs veh, ZNF655 / RFU, FAHD1 / Fold change vs veh, FAHD1 / RFU, BDP1 / Fold change vs veh, BDP1 / RFU, LRRCC1 / Fold change vs veh, LRRCC1 / RFU, ARID1A / Fold change vs veh, ARID1A / RFU, ZNF146 / Fold change vs veh, ZNF146 / RFU, ZNF330 / Fold change vs veh, ZNF330 / RFU, GPN3 / Fold change vs veh, GPN3 / RFU, C9orf123 / Fold change vs veh, C9orf123 / RFU, N4BP2L2 / Fold change vs veh, N4BP2L2 / RFU, ARFIP1 / Fold change vs veh, ARFIP1 / RFU, FAM179B / Fold change vs veh, FAM179B / RFU, BCL10 / Fold change vs veh, BCL10 / RFU, UHRF1BP1L / Fold change vs veh, UHRF1BP1L / RFU, BET1 / Fold change vs veh, BET1 / RFU, CNOT2 / Fold change vs veh, CNOT2 / RFU, ZNF268 / Fold change vs veh, ZNF268 / Fold change vs veh, ZNF507 / RFU, DGCR2 / Fold change vs veh, DGCR2 / RFU, WDSUB1 / Fold change vs veh, WDSUB1 / Fold change vs veh, HSP90B1 /// MIR3652 / RFU, ADSS / Fold change vs veh, ADSS / RFU, GK / Fold change vs veh, GK / RFU, ZNF148 / Fold change vs veh, ZNF148 / RFU, TAF9 / Fold change vs veh, TAF9 / RFU, SLC1A5 / Fold change vs veh, SLC1A5 / RFU, SLMO2 / Fold change vs veh, SLMO2 / RFU, ABCC4 / Fold change vs veh, ABCC4 / RFU, LOC101060439 /// RAP1B / Fold change vs veh, LOC101060439 /// RAP1B / RFU, RFX7 / Fold change vs veh, RFX7 / RFU, GTPBP10 / Fold change vs veh, GTPBP10 / RFU, CNEP1R1 / Fold change vs veh, CNEP1R1 / RFU, BIVM-ERCC5 /// ERCC5 / Fold change vs veh, BIVM-ERCC5 /// ERCC5 / RFU, ILF3 / Fold change vs veh, ILF3 / RFU 11762660_at / Fold change /veh 11762660_at / RFU VCAN (11757783_s_at) / Fold change /veh VCAN (11757783_s_at) / RFU DDX43 (11728927_at) / Fold change /veh DDX43 (11728927_at) / RFU KRT8 (11758188_x_at) / Fold change /veh KRT8 (11758188_x_at) / RFU NKD1 (11759106_at) / Fold change /veh NKD1 (11759106_at) / RFU SRD5A1 (11742802_a_at) / Fold change /veh SRD5A1 (11742802_a_at) / RFU TPSAB1 /// TPSB2 (11721975_s_at) / Fold change /veh TPSAB1 /// TPSB2 (11721975_s_at) / RFU GSTM3 (11746129_a_at) / Fold change /veh GSTM3 (11746129_a_at) / RFU IL23R (11737362_x_at) / Fold change /veh IL23R (11737362_x_at) / RFU TMEM51 (11727254_a_at) / Fold change /veh TMEM51 (11727254_a_at) / RFU PIWIL2 (11732686_x_at) / Fold change /veh PIWIL2 (11732686_x_at) / RFU ORM1 (11744905_x_at) / Fold change /veh ORM1 (11744905_x_at) / RFU CCDC152 (11743942_at) / Fold change /veh CCDC152 (11743942_at) / RFU ECM1 (11717891_a_at) / Fold change /veh ECM1 (11717891_a_at) / RFU IL23R (11748794_a_at) / Fold change /veh IL23R (11748794_a_at) / RFU TNFAIP8L3 (11732012_x_at) / Fold change /veh TNFAIP8L3 (11732012_x_at) / RFU MBOAT4 (11741988_at) / Fold change /veh MBOAT4 (11741988_at) / RFU 11764193_at / Fold change /veh 11764193_at / RFU TMEM53 (11763286_at) / Fold change /veh TMEM53 (11763286_at) / RFU MAGEB2 (11727129_at) / Fold change /veh MAGEB2 (11727129_at) / RFU TMEM200A (11744735_a_at) / Fold change /veh TMEM200A (11744735_a_at) / RFU CCDC152 (11751479_a_at) / Fold change /veh CCDC152 (11751479_a_at) / RFU FAM211A (11726209_a_at) / Fold change /veh FAM211A (11726209_a_at) / RFU RGS16 (11746705_a_at) / Fold change /veh RGS16 (11746705_a_at) / RFU VCAN (11755009_s_at) / Fold change /veh VCAN (11755009_s_at) / RFU RHOB (11743442_s_at) / Fold change /veh RHOB (11743442_s_at) / RFU RGS16 (11720943_a_at) / Fold change /veh RGS16 (11720943_a_at) / RFU RGS16 (11720944_at) / Fold change /veh RGS16 (11720944_at) / RFU, VPS4B / Fold change vs veh, VPS4B / RFU, CREB1 / Fold change vs veh, CREB1 / RFU, DNAJC13 / Fold change vs veh, DNAJC13 / RFU, GNAQ / Fold change vs veh, GNAQ / RFU, CDK5R1 / Fold change vs veh, CDK5R1 / RFU, ZRANB3 / Fold change vs veh, ZRANB3 / RFU, CUL4A / Fold change vs veh, CUL4A / RFU, CCNY / Fold change vs veh, CCNY / RFU, UFL1 / Fold change vs veh, UFL1 / RFU, COG3 / Fold change vs veh, COG3 / RFU, DIAPH2 / Fold change vs veh, DIAPH2 / RFU, SKA2 / Fold change vs veh, SKA2 / RFU, AFF3 / Fold change vs veh, AFF3 / RFU, LMF1 / Fold change vs veh, LMF1 / RFU, IPO11 / Fold change vs veh, IPO11 / RFU, DFFB / Fold change vs veh, DFFB / RFU, FOXP1 / Fold change vs veh, FOXP1 / RFU, CARD8 / Fold change vs veh, CARD8 / RFU, STRN3 / Fold change vs veh, STRN3 / RFU, ADK / Fold change vs veh, ADK / RFU, RASSF2 / Fold change vs veh, RASSF2 / RFU, WIPF1 / Fold change vs veh, WIPF1 / RFU, LARP1B / Fold change vs veh, LARP1B / RFU, RASA1 / Fold change vs veh, RASA1 / RFU, RB1 / Fold change vs veh, RB1 / RFU, PPFIA1 / Fold change vs veh, PPFIA1 / RFU, MAT2A / Fold change vs veh, MAT2A / RFU, CCT5 / Fold change vs veh, CCT5 / RFU, WDR92 / Fold change vs veh, WDR92 / RFU, CUX1 / Fold change vs veh, CUX1 / RFU, TTC7A / Fold change vs veh, TTC7A / RFU, TMEM135 / Fold change vs veh, TMEM135 / RFU, DEPTOR / Fold change vs veh, DEPTOR / RFU, CPM / Fold change vs veh, CPM / RFU, DNAJB6 / Fold change vs veh, DNAJB6 / RFU, CACNA2D3 / Fold change vs veh, CACNA2D3 / RFU, DTX4 / Fold change vs veh, DTX4 / RFU, TFCP2 / Fold change vs veh, TFCP2 / RFU, GMCL1 /// GMCL1P1 / Fold change vs veh, GMCL1 /// GMCL1P1 / RFU, AEBP2 / Fold change vs veh, AEBP2 / RFU, SNHG1 /// SNORD22 /// SNORD25 /// SNORD26 /// SNORD27 /// SNORD28 /// SNORD29 /// SNORD31 / Fold change vs veh, SNHG1 /// SNORD22 /// SNORD25 /// SNORD26 /// SNORD27 /// SNORD28 /// SNORD29 /// SNORD31 / Fold change (Aza/veh), C12orf56 (ProbeSet 11735607_a_at) / Fold change (ACY-1035/veh), C12orf56 (ProbeSet 11735607_a_at) / Fold change (Aza/veh), FGFR1OP (ProbeSet 11751329_s_at) / Fold change (ACY-1035/veh), FGFR1OP (ProbeSet 11751329_s_at) / Fold change (Aza/veh), VPS36 (ProbeSet 11739960_a_at) / Fold change (ACY-1035/veh), VPS36 (ProbeSet 11739960_a_at) / RFU SYPL1 (11715823_x_at) / Fold change /veh SYPL1 (11715823_x_at) / RFU IGFBP7 (11715501_s_at) / Fold change /veh IGFBP7 (11715501_s_at) / RFU REEP3 (11722064_at) / Fold change /veh REEP3 (11722064_at) / RFU IGLL1 (11728026_x_at) / Fold change /veh IGLL1 (11728026_x_at): dose or concentration left out as unconfirmed
Conditions: MV-4-11 cells, 48 hours

Nc1ncn([C@@H]2O[C@H](CO)[C@@H](O)[C@H]2O)c(=O)n1 [azacitidine]
RFU C10orf10 (11716522_x_at): 45.56 RFU
